We go through one compound from patent US20080103198A1, “METHODS FOR TREATMENT OF COCHLEAR AND VESTIBULAR DISORDERS” (priority 2006, published 2008).

Test [1] relates to PC12 cells. The test is described as follows: PC12 cell serum withdrawal model (MTS assay). The class given is cell-based. The conditions noted are these: control cells = 100%. The text has this: Serum withdrawal is a cytotoxic environmental challenge that results in cell death in cultured cell lines as well as in primary cells of various tissue origins, including nerve cells. In particular, pheochromocytoma (PC) 12 cells have been widely employed as an in vitro neuronal cell model for a wide variety of neurodegenerative and cell death related disorders (Muriel, et al, Mitochondrial free calcium levels (Rhod-2 fluorescence) and ultrastructural alterations in neuronally differentiated PC12 cells during ceramide-dependent cell death, J. Comp. Neurol., 2000, 426(2), 297-315; Dermitzaki, et al, Opioids transiently prevent activation of apoptotic mechanisms following short periods of serum withdrawal, J. Neurochem., 2000, 74(3), 960-969; Carlile, et al, Reduced apoptosis after nerve growth factor and serum withdrawal: conversion of tetrameric glyceraldehyde-3-phosphate dehydrogenase to a dimer, Mol. Pharmacol., 2000, 57(1), 2-12).
PC12 cells were cultured in sterile media (RPMI 1640) supplemented with 10% heat-inactivated horse serum and 5% fetal bovine serum (FBS). The culture medium also contained Penicillin-Streptomycin-Neomycin antibiotic (50µg, 50µg, 100µg, respectively). Medium was exchanged every other day and the cells were passed in log phase near confluence.
The control cells were cultured in regular media without any treatment. An enantiomer of Formula 7 or Formula 8 (10µM) was mixed well in the medium and then applied to the cells. For the 2 day assay, an enantiomer of Formula 7 or Formula 8 (10µM) was only applied to the cells once at the time of serum withdrawal. For the 7 day assay, an enantiomer of Formula 7 or Formula 8 (10. mu.M) was applied to the cells at the time of serum withdrawal and every 48 hr thereafter when cells were changed with fresh new serum-free medium. In the serum withdrawal group, the cells were cultured in serum-free medium with no additional enantiomer of Formula 7 or Formula 8. Cell survival was determined by the 3-(4,5-dimethylthiazol-2-yl)-5-(3-carboxy-methoxyphenyl)-2-(4-sulfophenyl)-2H-tetrazolium inner salt (MTS) assay at 2 or 7 days after serum withdrawal.
At the end of the experiment, cells were washed with fresh medium and incubated with MTS solution in a humidified 37° C. with 5% CO2 incubator for 1.5 hr. After the incubation period, the cells were immediately analyzed using a Softmax program (Molecular Devices). […] The assay is based on the cellular conversion of the tetrazolium salt, MTS, into a formazan that is soluble in tissue culture medium and measured directly at 490 nm in 96-well assay plates. The absorbance is directly proportional to the number of living cells in culture. The arbitrary absorbance reading in control cells is expressed as 100% survival rate.

The test system of test [2] is transient cerebral ischemia (MCAO). In words: Transient cerebral ischemia middle cerebral artery occlusion (MCAO) rat model. The test is classed as in vivo. To be noted: N=12. On the procedure:
The enantiomer of Formula 7 was investigated in the transient cerebral ischemia middle cerebral artery occlusion (MCAO) rat model (as described in Nagasawa H. and Kogure K., Stroke, 1989, 20, 1037; and, Zea Longa E., Weinstein P. R., Carlson S, and Cummins R., Stroke, 1989, 20, 84) using male Wistar rats at 10 and 100 mg/kg (i.v.). MK 801 (Dizocilpine maleate; CAS Registry number 77086-22-7, a commercially available neuroprotectant compound) was used as a positive control (3 mg/kg, i.p.).
Rats (n=12) were randomly allocated to one of four experimental groups and were anesthetized. Blood flow from the internal carotid artery, anterior cerebral artery and posterior cerebral artery into the middle cerebral artery was blocked by this procedure. One hour after blockage, animals were treated over a 1 hour period with vehicle (administered i.v. over the one hour period), control (administered as a single i.p. dose at the start of the one hour period) and two doses of the enantiomer of Formula 7 (administered i.v. over the one hour period). Two hours after blockage, reperfusion was performed.
The animals were sacrificed and […] coronal sections of each brain were prepared. One in every forty sections (i.e. every […]) from the front to the occipital cortex was used to quantify the extent of the cerebral lesion. Slides were prepared using sections stained (according to the Nissl procedure) with cresyl violet and were examined under a light microscope.
Regional ischemic surface areas in the coronal sections of individual rats were determined according to the presence of cells with morphological changes. The areas of neuronal injury or infarction were measured and then added. The cortex and striatum volume were calculated for each animal (total ischemic surface area×0.8 mm (thickness)).
The mean volumes (.+−.S.E.M.) for each animal randomly assigned to the four experimental groups were compared using one-way ANOVA (one way ANOVA is a statistical method which compares 3 or more unmatched groups) followed by Dunnett's t-test (both methods incorporated in Statview 512+software, BarinPower, Calabasas, Calif., USA).

[3] abbreviates: Formula 7 10 mg/kg i.v. over 1 hour.
Where [4] appears, read: Formula 7 100 mg/kg i.v. over 1 hour.

Structures are written as SMILES.

Consider `NC(=O)OC[C@@H](O)c1ccccc1Cl` [test compound], for which the “2 Day Survival Rate” value in test [1] (10 µM applied once at serum withdrawal) is reported as 69.4 ± 1.7^1%. The “7 Day Survival Rate” value in test [1] (10 µM at serum withdrawal and every 48 hr) is recorded as 79.9 ± 4.0^2%. In test [2] (setting [3]), the “Mean Infarct Volume ± S.E.M., Cortex Volume” value was 201.0 ± 23.9 ^ mm^3; the “Mean Infarct Volume ± S.E.M., Striatum” value is reported as 75.9 ± 2.6^ mm^3; the “Mean Infarct Volume ± S.E.M., Total” value is listed as 276.9 ± 25.4^ mm^3. Further, in test [2] (setting [4]), the “Mean Infarct Volume ± S.E.M., Cortex Volume” value is recorded as 98.8 ± 29.5^1 mm^3; the “Mean Infarct Volume ± S.E.M., Striatum” value is on record as 63.0 ± 5.9^2 mm^3; the “Mean Infarct Volume ± S.E.M., Total” value is listed as 161.9 ± 34.3^1 mm^3.
